In US20240199578A1, “SOLID STATE FORMS OF ZAVEGEPANT AND PROCESS FOR PREPARATION THEREOF” (TEVA CZECH INDUSTRIES S.R.O, priority 2021, published 2024):

Test: Stability to polymorphic conversion (heating, grinding, high relative humidity)
Assay type: physicochemical
Settings: when heated, during grinding and/or high relative humidity

In the case of `Cc1cc(C[C@@H](NC(=O)N2CCC(c3cc4ccccc4[nH]c3=O)CC2)C(=O)N2CCN(C3CCN(C)CC3)CC2)cc2cn[nH]c12` [Form B], the “stability to polymorphic conversion” value is reported as “particularly stable to polymorphic conversion”.
